These results are taken from US8592456B2 (4SC Discovery GmbH, priority 2011, dated 2013).

Each structure is given as a SMILES string.

This assay has as its system PBMC (T cell proliferation). The experiment in a line: T cell proliferation assay, PHA-stimulated human PBMC (BrdU ELISA). It counts as cell-based. As to conditions: human PBMC, 2 μg/ml PHA, 48 hours, BrdU; read-out: D: IC50 (Tcell proliferation). The procedure:
Cell proliferation was analysed using the BrdU based cell proliferation ELISA from Roche (Mannheim, Germany) according to the manufacturer's instructions.
T Cell Proliferation Assay
Peripheral blood mononuclear cells (PBMC) from healthy human donors were isolated by centrifugation over Ficoll-Hypaque (Sigma-Aldrich, Germany) according to manufacturer's instructions. Purified PBMC were washed twice with PBS and resuspended in RPMI1640 culture medium supplemented with 10% dialyzed heat inactivated fetal calf serum, 1.5 mM L-glutamine, 100 U penicillin/ml, and […] (all from PAN Biotech, Aidenbach, Germany). For stimulation, PBMC were seeded at 1×10^5 cells/well, activated with 2 μg/ml phytohaemagglutinin (PHA, Sigma) and incubated with the test compound. After 48 hours proliferation was measured using the BrdU based cell proliferation ELISA from Roche (Mannheim, Germany) according to the manual.
For orientation: Incorporation of labelled thymidine or its analogues reports DNA synthesis.

In the case of `COC(=O)c1c(-c2c(F)cccc2Cl)noc1-c1cnn(-c2c(F)c(F)cc(F)c2F)c1C(F)(F)F` [Example 47, methyl 3-(2-chloro-6-fluorophenyl)-5-(1-(2,3,5,6-tetrafluorophenyl)-5-(trifluoromethyl)-1H-pyrazol-4-yl)isoxale-4-carboxylate], the IC50 lay within 100 to 1000 nM.

Regarding `COC(=O)c1c(-c2c(F)cccc2Cl)noc1-c1cnn(-c2ccccc2)c1C(F)(F)F` [Example 48, methyl 3-(2-chloro-6-fluorophenyl)-5-(1-phenyl-5-(trifluomethyl)1H-pyrazol-4-yl)isoxazole-4-carboxylate], the IC50 fell in the range of 10 to 100 nM. Next, `N#Cc1c(-c2c(F)cccc2Cl)noc1-c1cnn(-c2cccc(Cl)c2)c1C(F)(F)F` [Example 49, 3-(2-chloro-6-fluorophenyl)-5-(1-(3-chlorophenyl)-5-(trifluoromethyl)-1H-pyrazol-4-yl)isoxazole-4-carbonitrile]: 100 to 1000 nM. Next, `COC(=O)c1c(-c2c(F)cccc2Cl)noc1-c1cnn(-c2cc(F)cc(F)c2)c1C(F)(F)F` [Example 50, methyl 3-(2-chloro-6-fluorophenyl)-5-(1-(3,5-difluorophenyl)-5-(trifluoromethyl)-1H-pyrazol-4-yl)isoxazole-4-carboxylate]: below 10 nM; `COC(=O)c1c(-c2ccccc2)noc1-c1cnn(-c2cccc(F)c2)c1C(F)(F)F` [Example 51, methyl 5-(1-(3-fluorophenyl)-5-(trifluoromethyl)-1H-pyrazol-4-yl)-3-phenylisoxazole-4-carboxylate]: 1000 to 10000 nM. Next, `COC(=O)c1c(-c2c(F)cccc2Cl)noc1-c1cnn(-c2nc(-c3ccc(F)cc3)cs2)c1C(F)(F)F` [Example 54, methyl 3-(2-chloro-6-fluorophenyl)-5-(1-(4-(4-fluorophenyl)thiazol-2-yl)-5-(trifluoromethyl)-1H-pyrazol-4-yl)isoxazole-4-carboxylate]: 1000 to 10000 nM; `CNC(=O)c1c(-c2c(F)cccc2Cl)noc1-c1cnn(-c2ccc(F)cc2)c1C(F)(F)F` [Example 55, 3-(2-chloro-6-fluorophenyl)-5-(1-(4-fluorophenyl)-5-(trifluoromethyl)-1H-pyrazol-4-yl)-N-methylisoxazole-4-carboxamide]: 100 to 1000 nM; `CNC(=O)c1c(-c2c(F)cccc2Cl)noc1-c1cnn(-c2ccc(F)cc2F)c1C(F)(F)F` [Example 57, 3-(2-chloro-6-fluorophenyl)-5-(1-(2,4-difluorophenyl)-5-(trifluoromethyl)-1H-pyrazol-4-yl)-N-methylisoxazole-4-carboxamide]: 1000 to 10000 nM. Consider `CNC(=O)c1c(-c2c(F)cccc2Cl)noc1-c1cnn(-c2ccccc2)c1C(F)(F)F` [Example 59, 3-(2-chloro-6-fluorophenyl)-N-methyl-5-(1-phenyl-5-(trifluoromethyl)-1H-pyrazol-4-yl)isoxazole-4-carboxamide], for which the IC50 is 100 to 1000 nM. Next, `COC(=O)c1c(-c2ccccc2)noc1-c1cnn(-c2ccccc2F)c1C(F)(F)F` [Example 61, methyl 5-(1-(2-fluorophenyl)-5-(trifluoromethyl)-1H-pyrazol-4-yl)-3-phenylisoxazole-4-carboxylate]: 1000 to 10000 nM. The figure for `CNC(=O)c1c(-c2c(F)cccc2Cl)noc1-c1cnn(-c2cccc(F)c2)c1C(F)(F)F` [Example 62, 3-(2-chloro-6-fluorophenyl)-5-(1-(3-fluorophenyl)-5-(trifluoromethyl)-1H-pyrazol-4-yl)-N-methylisoxazole-4-carboxamide] is 10 to 100 nM; for `CON(C)C(=O)c1c(-c2c(F)cccc2Cl)noc1-c1cnn(-c2cccc(Cl)c2)c1C(F)(F)F` [Example 63, 3-(2-chloro-6-fluorophenyl)-5-(1-(3-chlorophenyl)-5-(trifluoromethyl)-1H-pyrazol-4-yl)-N-methoxy-N-methylisoxazole-4-carboxamide] it is 100 to 1000 nM; for `COC(=O)c1c(-c2c(F)cccc2Cl)noc1-c1cnn(-c2cccc(F)c2)c1C(F)(F)C(F)F` [Example 64, methyl 3-(2-chloro-6-fluorophenyl)-5-(1-(3-fluorophenyl)-5-(1,1,2,2-tetrafluoroethyl)-1H-pyrazol-4-yl)isoxazole-4-carboxylate] it is 1000 to 10000 nM. The figure for `COC(=O)c1c(-c2c(F)cccc2Cl)noc1-c1cnn(CC(F)(F)F)c1C(F)(F)F` [Example 65, methyl 3-(2-chloro-6-fluorophenyl)-5-(1-(2,2,2-trifluoroethyl)-5-(trifluoromethyl)-1H-pyrazol-4-yl)isoxazole-4-carboxylate] is 10 to 100 nM; for `COC(=O)c1c(-c2c(F)cccc2Cl)noc1-c1cnn(C(C)C)c1C(F)(F)F` [Example 66, methyl 3-(2-chloro-6-fluorophenyl)-5-(1-isopropyl-5-(trifluoromethyl)-1H-pyrazol-4-yl)isoxazole-4-carboxylate] it is 1000 to 10000 nM; for `COC(=O)c1c(-c2c(F)cccc2Cl)noc1-c1cnn(-c2nccc(C(F)(F)F)n2)c1C(F)(F)F` [Example 67, methyl 3-(2-chloro-6-fluorophenyl)-5-(5-(trifluoromethyl)-1-(4-(trifluoromethyl)pyrimidin-2-yl)-1H-pyrazol-4-yl)isoxazole-4-carboxylate] it is 100 to 1000 nM.

On to `COC(=O)c1c(-c2c(F)cccc2Cl)noc1-c1cnn(-c2cc(Cl)cc(Cl)c2)c1C(F)(F)F` [Example 68, methyl 3-(2-chloro-6-fluorophenyl)-5-(1-(3,5-dichlorophenyl)-5-(trifluoromethyl)-1H-pyrazol-4-yl)isoxazole-4-carboxylate], for which the IC50 is 10 to 100 nM.

On to `COC(=O)c1c(-c2c(F)cccc2Cl)noc1-c1cnn(-c2c(Cl)cccc2Cl)c1C(F)(F)F` [Example 70, methyl 3-(2-chloro-6-fluorophenyl)-5-(1-(2,6-dichlorophenyl)-5-(trifluoromethyl)-1H-pyrazol-4-yl)isoxazole-4-carboxylate], for which the IC50 lay in the range of 100 to 1000 nM. Next, `CNC(=S)c1c(-c2c(F)cccc2Cl)noc1-c1cnn(-c2cccc(Cl)c2)c1C(F)(F)F` [Example 72, 3-(2-chloro-6-fluorophenyl)-5-(1-(3-chlorophenyl)-5-(trifluoromethyl)-1H-pyrazol-4-yl)-N-methylisoxazole-4-carbothioamide]: 100 to 1000 nM; `COC(=O)c1c(-c2ccc(Cl)cc2)noc1-c1cnn(-c2cccc(F)c2)c1C(F)(F)F` [Example 73, methyl 3-(4-chlorophenyl)-5-(1-(3-fluorophenyl)-5-(trifluoromethyl)-1H-pyrazol-4-yl)isoxazole-4-carboxylate]: 1000 to 10000 nM; `COC(=O)c1c(-c2ccccc2)noc1-c1cnn(-c2ccc(OC(F)(F)F)cc2)c1C(F)(F)F` [Example 74, methyl 3-phenyl-5-(1-(4-(trifluoromethoxy)phenyl)-5-(trifluoromethyl)-1H-pyrazol-4-yl)isoxazole-4-carboxylate]: 1000 to 10000 nM. Next, `CNC(=S)c1c(-c2c(F)cccc2Cl)noc1-c1cnn(-c2ccc(F)cc2)c1C(F)(F)F` [Example 76, 3-(2-chloro-6-fluorophenyl)-5-(1-(4-fluorophenyl)-5-(trifluoromethyl)-1H-pyrazol-4-yl)-N-methylisoxazole-4-carbothioamide]: 1000 to 10000 nM; `CCOC(=O)c1c(-c2ccc(Cl)cc2)noc1-c1cnn(-c2cccc(Cl)c2)c1C(F)(F)F` [Example 77, ethyl 3-(4-chlorophenyl)-5-(1-(3-chlorophenyl)-5-(trifluoromethyl)-1H-pyrazol-4-yl)isoxazole-4-carboxylate]: 1000 to 10000 nM; `COC(=O)c1c(-c2c(F)cccc2Cl)noc1-c1cnn(-c2ccc(C(C)(C)C)cc2)c1C(F)(F)F` [Example 81, methyl 5-(1-(4-tert-butylphenyl)-5-(trifluoromethyl)-1H-pyrazol-4-yl)-3-(2-chloro-6-fluorophenyl)isoxazole-4-carboxylate]: 1000 to 10000 nM. Next, `COC(=O)c1c(-c2c(F)cccc2Cl)noc1-c1cnn(-c2cccc(C(F)(F)F)c2)c1C(F)(F)F` [Example 82, methyl 3-(2-chloro-6-fluorophenyl)-5-(5-(trifluoromethyl)-1-(3-(trifluoromethyl)phenyl)-1H-pyrazol-4-yl)isoxazole-4-carboxylate]: 1000 to 10000 nM; `COC(=O)c1c(-c2c(F)cccc2Cl)noc1-c1cnn(-c2ccccn2)c1C(F)(F)F` [Example 84, methyl 3-(2-chloro-6-fluorophenyl)-5-(1-(pyridin-2-yl)-5-(trifluoromethyl)-1H-pyrazol-4-yl)isoxazole-4-carboxylate]: below 10 nM; `COC(=O)c1c(-c2c(F)cccc2Cl)noc1-c1cnn(-c2ccc(S(C)(=O)=O)cc2)c1C(F)(F)F` [Example 85, methyl 3-(2-chloro-6-fluorophenyl)-5-(1-(4-(methylsulfonyl)phenyl)-5-(trifluoromethyl)-1H-pyrazol-4-yl)isoxazole-4-carboxylate]: 1000 to 10000 nM. In the case of `COC(=O)c1c(-c2c(F)cccc2Cl)noc1-c1cnn(-c2ncc(C(F)(F)F)cc2Cl)c1C(F)(F)F` [Example 87], the IC50 is 1000 to 10000 nM. The figure for `COC(=O)c1c(-c2c(F)cccc2Cl)noc1-c1cnn(-c2ccccc2I)c1C(F)(F)F` [Example 88, methyl 3-(2-chloro-6-fluorophenyl)-5-(1-(2-iodophenyl)-5-(trifluoromethyl)-1H-pyrazol-4-yl)isoxazole-4-carboxylate] is 1000 to 10000 nM; for `COC(=O)c1c(-c2c(F)cccc2Cl)noc1-c1cnn(-c2ccccc2F)c1` [Example 89, Methyl 3-(2-chloro-6-fluorophenyl)-5-[1-(2-fluorophenyl)-1H-pyrazol-4-yl]isoxazole-4-carboxylate] it is 100 to 1000 nM.
